Assay results taken from patent US11078194B2, “Salt form and crystal form serving as FGFR and VEGFR inhibitor compounds, and preparation method therefor” (HARBIN ZHENBAO PHARMACEUTICAL CO., LTD., priority 2017, dated 2021).
One block for each compound: values may come before it.

Legend:
[1] = Solid stability test of crystal form G, crystal form I and crystal form J (HPLC content, total impurities, XRPD, appearance); assay type: physicochemical; settings: for thermal stability and stability under accelerated conditions: conclusion of influencing factors and accelerated tests
Experimental: About 10 mg of crystal form G, crystal form I, or crystal form J were weighed accurately, and placed on the bottom of a 40 mL glass sample bottle and spread into a thin layer. For an open sample, the bottle mouth thereof was sealed with aluminum foil poked with pinholes to ensure that the sample can fully contact with the ambient air. For a sealed sample, the bottle mouth thereof was sealed with a bottle cap, and wrapped with a sealing film. Two duplicate samples were weighed at each time point of each condition in parallel, and an appropriate amount of sample (not weighed) was taken additionally for XRPD detection. The prepared samples were placed under each condition and were sampled and analyzed when the time point was arrived. On 0th day, 5 control samples were weighed in parallel and stored in a refrigerator at −20° C. until analysis. The samples subjected to light irradiation were prepared by the same method, and placed on the bottom of a 40 mL glass sample bottle. The glass bottle was left open and placed in the upright position in a light irradiation box. In addition, two samples in an appropriate amount were taken as samples in dark, and the glass bottles containing the same were left open, put in the upright position, and wrapped with tin foil, and irradiated with a total luminance of 1.2×10^6Lux.hr and a near ultraviolet power of 200 w.hr/m^2. After irradiation, the samples was stored in the refrigerator at −20° C. for analysis.
The compounds were placed under the following conditions and sampled at different time points to detect the physical properties, and the content and total impurities were analyzed by HPLC.

[2] = Hygroscopicity test by dynamic vapor sorption (DVS); assay type: physicochemical; settings: 25±1° C. and 80±2% RH; for hygroscopicity evaluation: scales in the 11th table
Experimental: Instrument model: SMS DVS Advantage dynamic vapor sorption analyzer Detection conditions: samples (10 mg to 15 mg) were placed in a DVS sample tray for detection. The detailed DVS parameters are as follows: Temperature: 25° C. Balance: dm/dt=0.01%/min (shortest: 10 min, longest: 180 min) Drying: 120 minutes at 0% RH RH (%) gradient for testing: 10% RH (%) range for gradient testing: 0%-90%-0% The hygroscopicity was evaluated using the following scales: [table] 10 to 15 mg of the crystal form I of the compound of formula (III) was taken and placed in a DVS sample tray for testing. 10 to 15 mg of the crystal form J of the compound of formula (IV) was taken and placed in a DVS sample tray for testing.

[3] = test system: FGFR1/2 Highly Expressed Patient-derived Liver Tumor Transplantation Model; assay: Tumor growth inhibition (TGI) analysis; assay type: in vivo, mice; settings: 5 mg/kg, BID
Experimental: The evolutionary growth potential of tumors was evaluated by the relationship between tumor volume and time. The long axis (L) and short axis (W) of the subcutaneous tumor were measured twice a week by the caliper and the tumor volume (TV) was calculated by the formula ((L×W^2)/2). TGI was calculated from the difference between the median tumor volume in the solvent group mice and the median tumor volume in the drug group mice, expressed as a percentage counting for the median tumor volume in the solvent control group, calculated by the following formula: % TGI=((median tumor volume (control)−median tumor volume (dosing group))/median tumor volume (control group))×100
The original statistical analysis was done by repeating the analysis of variance, followed by post-hoc Scheffe's test method for multiple comparisons, with solvent alone (0.5% methylcellulose+0.2% Tween in water) as negative control.

FGFR1 = target: T1, FGFR1 (Homo sapiens, UniProt P11362); assay: Z'-LYTE Detection Kinase Assay, in vitro enzyme activity test; assay type: biochemical; settings: 0.6 nM FGFR1, 10 μm ATP, 23° C., 60 minutes
T1 construct: purchased Invitrogen PV4105
T1 sequence (P11362 22-822): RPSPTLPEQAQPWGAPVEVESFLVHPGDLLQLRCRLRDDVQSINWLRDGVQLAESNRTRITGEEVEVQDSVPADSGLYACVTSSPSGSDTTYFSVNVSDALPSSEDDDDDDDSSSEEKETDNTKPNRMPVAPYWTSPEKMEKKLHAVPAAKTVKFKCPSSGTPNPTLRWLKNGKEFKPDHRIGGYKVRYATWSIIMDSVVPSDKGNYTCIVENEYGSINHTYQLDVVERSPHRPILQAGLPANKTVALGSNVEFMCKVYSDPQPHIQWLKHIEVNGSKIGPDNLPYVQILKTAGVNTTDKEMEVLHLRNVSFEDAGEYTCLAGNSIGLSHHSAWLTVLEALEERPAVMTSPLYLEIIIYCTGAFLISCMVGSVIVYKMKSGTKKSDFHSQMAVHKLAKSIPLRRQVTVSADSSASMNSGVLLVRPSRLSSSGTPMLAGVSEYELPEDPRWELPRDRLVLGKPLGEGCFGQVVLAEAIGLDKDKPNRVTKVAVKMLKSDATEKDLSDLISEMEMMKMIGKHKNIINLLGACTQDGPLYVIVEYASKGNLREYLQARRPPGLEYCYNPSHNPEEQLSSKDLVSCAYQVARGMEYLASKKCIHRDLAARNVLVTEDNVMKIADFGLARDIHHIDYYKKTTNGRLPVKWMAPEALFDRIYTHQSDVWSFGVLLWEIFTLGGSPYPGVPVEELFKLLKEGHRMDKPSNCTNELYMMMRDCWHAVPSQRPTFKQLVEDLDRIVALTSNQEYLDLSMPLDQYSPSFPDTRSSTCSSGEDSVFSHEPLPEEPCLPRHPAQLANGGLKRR
Experimental: The enzyme activity was detected by Z′-LYTE™ Detection Kinase Assay, and the IC50 value of the compound was used as an indicator to evaluate the inhibitory effect of the compound against FGFR1.
FGFR1 (Invitrogen #PV4105)
Reaction buffer solution: 50 mM Hepes (pH 7.5), 10 mM MgCl2, 1 mM EGTA, 0.01% Brij-35, 1 mM DTT, 2 mM MnCl2;
0.6 nM FGFR1, 2 μm Tyr^4 peptide and 10 μm ATP in reaction buffer solution (50 mM Hepes, pH 7.5, 10 mM MgCl2, 0.01% BRU-35, 1 mM EGTA, 4 mM MnCl2, 2 mM DTT).
a. Diluting the compound with DMSO to 10 mM, 3-fold dilution, 11 gradients, two duplicate wells;
b. Transferring compound diluted with a ratio of 1:25 to the middle plate at Bravo Automatic Liquid Station. Then transferring 2.5 uL to the reaction plate to ensure the final DMSO concentration to be 1%;
c. Transferring 5 μL enzyme/substrate buffer to each well;
d. Adding ATP solution to each well sequentially with Multidrop liquid workstation;
e. Centrifuging at 1000 rpm for 1 minute;
f. Placing the reaction plate in a 23° C. incubator, and allowing to react for 60 minutes.
a. Preparing a mixture of Development regent B and Development Buffer with a ratio of 1:128;
b. Adding 5 uL to each well and centrifuging at 1000 rpm for 1 minute;
c. Placing the reaction plate into an incubator (23° C.) for 90 minutes after centrifugation, taking it out, and reading it in the Envision (Perkin Elmer) plate reader […]

[4] = Accelerated test (40 C./relative humidity 75%, open), 1st month
[5] = Accelerated test (40 C./relative humidity 75%, open), 2nd month
[6] = Accelerated test (40 C./relative humidity 75%, open), 3rd month
[7] = Accelerated test (40 C./relative humidity 75%, open), 10th day
[8] = Accelerated test (60 C./relative humidity 75%, open), 1st month
[9] = Accelerated test (60 C./relative humidity 75%, open), 2nd month
[10] = Accelerated test (60 C./relative humidity 75%, open), 3rd month
[11] = Accelerated test (60 C./relative humidity 75%, open), 10th day
[12] = High humidity (Room temperature/relative humidity 92.5%, open), 5th day
[13] = High humidity (Room temperature/relative humidity 92.5%, open), 10th day
[14] = High temperature (60° C., open), 5th day
[15] = High temperature (60° C., open), 10th day
[16] = Light irradiation (total illuminance 1.2 × 10^6 Lux·hr/near ultraviolet 200 w·hr/m^2, open), light irradiation sample
[17] = Light irradiation test, Dark sample
[18] = Accelerated test (40° C./relative humidity 75%, open), 1st month
[19] = Accelerated test (40° C./relative humidity 75%, open), 2nd month
[20] = Accelerated test (40° C./relative humidity 75%, open), 3rd month
[21] = Accelerated test (40° C./relative humidity 75%, open), 10th day
[22] = Accelerated test (60° C./relative humidity 75%, open), 1st month
[23] = Accelerated test (60° C./relative humidity 75%, open), 2nd month
[24] = Accelerated test (60° C./relative humidity 75%, open), 3rd month
[25] = Accelerated test (60° C./relative humidity 75%, open), 10th day
[26] = Light irradiation (1.2 × 10^6 Lux·hr, near ultraviolet 200 w·hr/m^2, open), irradiated sample

Appearance ([1]; 0th day, control): Earth yellow | Crystal form (XRPD) ([1]; 0th day, control): form J | Content (%) ([1]; 0th day, control, HPLC): 100.00% | Total impurities (%) ([1]; 0th day, control, HPLC): 1.42% | Appearance [1, 4]: Earth yellow | Content (%) [1, 4]: 99.31% | Crystal form (XRPD) [1, 4]: form J | Total impurities (%) [1, 4]: 1.36% | Appearance [1, 5]: Earth yellow | Content (%) [1, 5]: 99.40% | Crystal form (XRPD) [1, 5]: form J | Total impurities (%) [1, 5]: 1.20% | Appearance [1, 6]: Earth yellow | Content (%) [1, 6]: 98.62% | Crystal form (XRPD) [1, 6]: form J | Total impurities (%) [1, 6]: 1.20% | Appearance [1, 7]: Earth yellow | Content (%) [1, 7]: 99.44% | Crystal form (XRPD) [1, 7]: form J | Total impurities (%) [1, 7]: 1.33% | Appearance [1, 8]: Earth yellow | Content (%) [1, 8]: 97.07% | Crystal form (XRPD) [1, 8]: form J | Total impurities (%) [1, 8]: 1.43% | Appearance [1, 9]: Earth yellow | Content (%) [1, 9]: 97.22% | Crystal form (XRPD) [1, 9]: form J | Total impurities (%) [1, 9]: 1.48% | Appearance [1, 10]: Earth yellow | Content (%) [1, 10]: 97.18% | Crystal form (XRPD) [1, 10]: form J | Total impurities (%) [1, 10]: 1.53% | Appearance [1, 11]: Earth yellow | Content (%) [1, 11]: 99.05% | Crystal form (XRPD) [1, 11]: form J | Total impurities (%) [1, 11]: 1.36% | Appearance [1, 12]: Earth yellow | Content (%) [1, 12]: 99.06% | Crystal form (XRPD) [1, 12]: form J | Total impurities (%) [1, 12]: 1.31% | Appearance [1, 13]: Earth yellow | Content (%) [1, 13]: 100.58% | Crystal form (XRPD) [1, 13]: form J | Total impurities (%) [1, 13]: 1.32% | Appearance [1, 14]: Earth yellow | Content (%) [1, 14]: 98.83% | Crystal form (XRPD) [1, 14]: form J | Total impurities (%) [1, 14]: 1.39% | Appearance [1, 15]: Earth yellow | Content (%) [1, 15]: 99.11% | Crystal form (XRPD) [1, 15]: form J | Total impurities (%) [1, 15]: 1.46% | Appearance [1, 16]: Earth yellow | Content (%) [1, 16]: 96.41% | Crystal form (XRPD) [1, 16]: form J | Total impurities (%) [1, 16]: 1.90% | Appearance [1, 17]: Earth yellow | Content (%) [1, 17]: 98.04% | Crystal form (XRPD) [1, 17]: form J | Total impurities (%) [1, 17]: 1.30% | thermal stability and stability under accelerated conditions [1]: excellent | stability under dark conditions [1]: good stability | impurities generated under light irradiation conditions [1]: slight impurities | hygroscopic weight gain ΔW [2]: 5.227% | hygroscopicity evaluation [2]: hygroscopic
SMILES: C[C@@H](Oc1ccc2[nH]nc(/C=C(\F)c3ccc(CNC4CCOCC4)nc3)c2c1)c1c(Cl)cncc1Cl.O=C(O)C[C@H](O)C(=O)O [crystal form J]

IC50 (FGFR1): ≤ 10 nM
SMILES: C[C@@H](Oc1ccc2[nH]nc(/C=C(\F)c3ccc(CNC4CCOCC4)nc3)c2c1)c1c(Cl)cncc1Cl [Embodiment 1]
TGI % (last administration) [3]: 85%

Appearance ([1]; 0th day): Earth yellow | Content (%) ([1]; 0th day): 100.00% | Crystal form (XRPD) ([1]; 0th day): form I | Total impurities (%) ([1]; 0th day): 1.91% | Appearance [1, 18]: Earth yellow | Content (%) [1, 18]: 99.83% | Crystal form (XRPD) [1, 18]: form I | Total impurities (%) [1, 18]: 1.88% | Appearance [1, 19]: Earth yellow | Content (%) [1, 19]: 100.06% | Crystal form (XRPD) [1, 19]: form I | Total impurities (%) [1, 19]: 1.82% | Appearance [1, 20]: Earth yellow | Content (%) [1, 20]: 99.32% | Crystal form (XRPD) [1, 20]: form I | Total impurities (%) [1, 20]: 1.86% | Appearance [1, 21]: Earth yellow | Content (%) [1, 21]: 99.93% | Crystal form (XRPD) [1, 21]: form I | Total impurities (%) [1, 21]: 1.85% | Appearance [1, 22]: Earth yellow | Content (%) [1, 22]: 99.95% | Crystal form (XRPD) [1, 22]: form I | Total impurities (%) [1, 22]: 1.74% | Appearance [1, 23]: Earth yellow | Content (%) [1, 23]: 98.46% | Crystal form (XRPD) [1, 23]: form I | Total impurities (%) [1, 23]: 1.79% | Appearance [1, 24]: Earth yellow | Content (%) [1, 24]: 97.31% | Crystal form (XRPD) [1, 24]: form I | Total impurities (%) [1, 24]: 1.83% | Appearance [1, 25]: Earth yellow | Content (%) [1, 25]: 100.19% | Crystal form (XRPD) [1, 25]: form I | Total impurities (%) [1, 25]: 1.85% | Appearance [1, 12]: Earth yellow | Content (%) [1, 12]: 99.10% | Crystal form (XRPD) [1, 12]: form I | Total impurities (%) [1, 12]: 1.88% | Appearance [1, 13]: Earth yellow | Content (%) [1, 13]: 99.92% | Crystal form (XRPD) [1, 13]: form I | Total impurities (%) [1, 13]: 1.73% | Appearance [1, 14]: Earth yellow | Content (%) [1, 14]: 100.40% | Crystal form (XRPD) [1, 14]: form I | Total impurities (%) [1, 14]: 1.93% | Appearance [1, 15]: Earth yellow | Content (%) [1, 15]: 100.26% | Crystal form (XRPD) [1, 15]: form I | Total impurities (%) [1, 15]: 1.83% | Appearance [1, 26]: Earth yellow | Content (%) [1, 26]: 97.37% | Crystal form (XRPD) [1, 26]: form I | Total impurities (%) [1, 26]: 2.35% | Appearance [1, 17]: Earth yellow | Content (%) [1, 17]: 99.42% | Crystal form (XRPD) [1, 17]: form I | Total impurities (%) [1, 17]: 1.85% | thermal stability and stability under accelerated conditions [1]: excellent | stability under dark conditions [1]: good stability | impurities generated under light irradiation conditions [1]: slight impurities | hygroscopic weight gain ΔW [2]: 2.134% | hygroscopicity evaluation [2]: hygroscopic
SMILES: C[C@@H](Oc1ccc2[nH]nc(/C=C(\F)c3ccc(CNC4CCOCC4)nc3)c2c1)c1c(Cl)cncc1Cl.O=C(O)CC(O)(CC(=O)O)C(=O)O [crystal form I]
